{"source": "patent US11963966B2", "about": "“Compositions and methods for treating ovarian tumors” (Dana-Farber Cancer Institute, Inc., priority 2017, dated 2024)", "format_in_all_cases": "cell-based", "key": {"[1]": {"tested_on": "patient ascites-derived spheroids", "test": "Mesothelial clearance (invasion through mesothelial monolayer)", "details": "pre-treatment 30 or 120 minutes followed by drug removal", "procedure": "(§1) FIG. 6A-FIG. 6G are a series of graphs and images depicting the impact of JAK/STAT-inhibition on spheroid formation, invasion and killing ex vivo and in vitro. FIG. 6A a histogram (FIG. 11B), showing drug screening with 14 compounds (at 1 μM) inhibiting the JAK/STAT pathway in OVACR4. Relative viability compared to DMSO control measured by CTG. […] The same library was screened in 2D-cultures of OVACR4 (FIG. 11A), and 2D-cultures of OVACR8 (FIG. 11C) and 3D-cultures of OVACR8 (FIG. 11D). FIG. 6B is a series of plots showing drug sensitivity testing using the GILA assay in platinum-resistant ex vivo spheroid cultures of patients DF3291 and DF3266, The X-axis indicates the log μM concentration of drugs indicated in the legend, Y-axis indicates the percentage of luminescence signal as indicator for viability relatively to DMSO treated cells. In both patients, half maximal effective concentration (EC50) were ˜100 nM and ˜10 nM, respectively, while other drugs routinely used for the treatment of (platinum-resistant) ovarian cancer had EC50>10 μM. FIG. 6C is a series of images of microscopic analysis of spheroids with different drug treatments to highlight the morphologic changes during therapy with drugs listed. Inhibition of JAK/STAT pathway disrupts ex vivo spheroid cultures. […] 20 spheroids clusters were analyzed for each iteration. […]"}, "[2]": {"tested_on": "spheroids of ovarian cancer cell lines OVCAR8 and TKYNU", "test": "Mesothelial clearance (invasion through mesothelial monolayer)", "details": "treatment 30 minutes followed by drug removal", "procedure": "as §1"}, "[3]": {"tested_on": "cells from abdominal ascites of ovarian patient NACT14", "test": "Sensitivity of patient-derived ovarian cells in a microfluidic device", "details": "10 μM, ~800 cells in 1 microliter, imaging 48 hours after drug", "procedure": "Heterogeneous cell population isolated from abdominal ascites of ovarian patient NACT14. A limited number of cells (˜800 cells) in a volume of 1 microliter were tested for sensitivity of JSI124. On day 0, the cells were seeded in the microfluidic device. On day 1, drug was administered, together with a blue dye (FIG. 29-FIG. 31).\nHoechst confocal imaging (stained nuclei) was used to observe cells forty eight (48) hours after the drug was added (FIG. 32-FIG. 35)."}, "[4]": {"tested_on": "STAT3 activity in Heya8 cells", "test": "STAT3-dependent luciferase assay after oncostatin M (OSM) stimulation", "details": "Heya8 cells pre-treated 1 hour vs DMSO, then OSM stimulation"}}, "note": "“Also recorded” adds a separate entry of the source.", "data": [{"smiles": "CC(C)(O)/C=C/C(=O)[C@](C)(O)[C@H]1[C@@H](O)C[C@@]2(C)[C@@H]3CC=C4[C@H](C=C(O)C(=O)C4(C)C)[C@]3(C)C(=O)C[C@]12C", "note": "[JSI-124, cucurbitacin I]", "values": [{"measurement": "Ability to invade (clear) the mesothelial monolayer", "setting": "[1]", "value": "significantly reduced ability to invade the mesothelial monolayer; also recorded: unable to invade through the mesothelial monolayer"}, {"measurement": "Ability to invade the mesothelium", "setting": "[2]", "value": "abolished their ability to invade the mesothelium; also recorded: unable to invade through the mesothelial monolayer"}, {"measurement": "Effectiveness against patient-derived ovarian cells", "setting": "[3]", "value": "Effective"}, {"measurement": "STAT3-dependent luciferase activity", "setting": "[4]", "value": "significant reduction in STAT-dependent expression"}]}]}
